The values below come from patent US20230248744A1, “25-HYDROXYVITAMIN D2 AND/OR D3 FOR USE IN OBESITY” (CARBOGEN AMCIS B.V., priority 2020, published 2023).

A short description of this data set: Calculated total uptake into blood and deposition of vitamin D3 from the blood level curves (FIG. 6). Conditions: for amount of vitamin D3 deposited in the first 24 hours: assuming a total blood volume of 5 liters. The data set is classed as in vivo, human. The text has this:
FIG. 6: The upper curves show the calculated total amounts of vitamin D3 arriving in blood of malabsorptive, obese and normal individuals. The lower curves show the experimental blood levels of vitamin D3 expressed in ng/mL of blood. The upper curves are as well expressed in ng/mL of blood, disregarding differing total blood volumes for malabsorptive, obese and normal individuals.
In order to further analyze the results, the shape of the concentration/time-curves describing the observed average blood levels of vitamin D3 was used to approximately calculate its total uptake into blood after dosage. The calculation was based on the assumptions compiled in the comments regarding FIG. 6. Metabolism in terms of the appearance of 25(OH)D3 which was experimentally determined in parallel to vitamin D3 can thereby be regarded as part of the immediately disappearing percentage of the total uptake into blood, and it is reasonable to assume that there is no other relevant metabolic step in this early phase, which has to be taken into account.
FIG. 6 presents the accordingly calculated total uptake and the experimentally determined levels of vitamin D3 for the first 24 hours after dosing. The difference between the upper (calculated) and the lower (experimental) curve represents the sum of metabolism and deposition. Herein the assumption is made that the elimination can be disregarded, because as known to the skilled person there is essentially no elimination of non-metabolized vitamin D3 from blood into urine. Metabolism in the first 24 hours results in all three cases (viz., malabsorptive, obese, and normal subjects) in the consumption of about 2 to 5 ng/mL, viz. a small part of the mentioned calculated difference (compare FIG. 7). No correction relating to said consumption seems necessary for determining the metabolite's observed concentration because the metabolite is rapidly forming a DBP-complex, characterized by a long half-life. However, the fact that the 25(OH)D3 formed must be determined as difference to baseline adds an element of uncertainty and the assumption that no more than a minor part of the 25(OH)D3 formed in this phase may not be absolutely to the point.
wherein the same correction regarding metabolism, as described above, was used for the obese and for the normal individuals, viz. 1.5 ng/mL at 15 hours and 3.5 ng/mL at 24 hours, respectively. These values come from FIG. 7B and are charged with a significant uncertainty—due to the significant experimental error in the early part of the respective curves. But they make sense, if inspecting the subsequent increase which can be more reliably determined. […]
The following relates to the coverage of the surface of adipocytes with vitamin D3. […] A homogenous cell diameter of 50 μm was determined to deliver about the same overall cell-surface one calculates by working with the rather wide experimental distribution of cell sizes as reported by Karin G. Stenkula et al. Thereby it was in the sense of a model consideration assumed that cubes containing large lipid droplet cubes can be used to describe the cells' shape (in other words: cubes of an edge-length of 50 μm enclosing cubes of about the same size were determined to represent a reasonable model for the description of the combined surface of the variable size cells' with their lipid droplets). […]

`C=C1CC[C@H](O)C/C1=C/C=C1\CCC[C@]2(C)[C@@H]([C@H](C)CCCC(C)C)CC[C@@H]12` [vitamin D3, cholecalciferol]: under “after 2½ days, from difference to Cmax and differing blood volumes”, the “R, deposition in fatty tissues in high BMI versus low BMI subjects” value is on record as 1.05 times. In addition, the “amount of vitamin D3 deposited in the first 24 hours” value by setting is: (healthy obese subjects) 92.5 µg; (normal subjects) 62.5 µg. Also, the “deposition of vitamin D3” value (low BMI group, after 2½ days) is given as roughly 7400 I.U. Further, for the setting “time point of 15 hours”, the “deposition in healthy obese versus normal low BMI subjects” value is listed as 1.5 times.
